#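 48-hour exposure; five concentrations; linearly interpolated endpoints. TGI: concentration producing complete growth inhibition.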
# Experiments:
# Experiment in all cases: growth of human tumour cells (NCI), 48 h
# 786-0 renal = test system: 786-0 renal
# A498 renal = test system: A498 renal
# A549 NSCLC = test system: A549 NSCLC
# ACHN renal = test system: ACHN renal
# BT-549 breast = test system: BT-549 breast
# CAKI-1 renal = test system: CAKI-1 renal
# CCRF-CEM leukemia = test system: CCRF-CEM leukemia
# COLO 205 colon = test system: COLO 205 colon
# DU-145 prostate = test system: DU-145 prostate
# EKVX NSCLC = test system: EKVX NSCLC
# HCC-2998 colon = test system: HCC-2998 colon
# HCT-116 colon = test system: HCT-116 colon
# HCT-15 colon = test system: HCT-15 colon
# HL-60(TB) leukemia = test system: HL-60(TB) leukemia
# HOP-62 NSCLC = test system: HOP-62 NSCLC
# HOP-92 NSCLC = test system: HOP-92 NSCLC
# HS 578T breast = test system: HS 578T breast
# HT29 colon = test system: HT29 colon
# IGROV1 ovarian = test system: IGROV1 ovarian
# K-562 leukemia = test system: K-562 leukemia
# KM12 colon = test system: KM12 colon
# LOX IMVI melanoma = test system: LOX IMVI melanoma
# M14 melanoma = test system: M14 melanoma
# MALME-3M melanoma = test system: MALME-3M melanoma
# MCF7 breast = test system: MCF7 breast
# MDA-MB-231 breast = test system: MDA-MB-231 breast
# MDA-MB-435 = test system: MDA-MB-435
# MDA-N = test system: MDA-N
# MOLT-4 leukemia = test system: MOLT-4 leukemia
# NCI-H226 lung = test system: NCI-H226 lung
# NCI-H23 lung = test system: NCI-H23 lung
# NCI-H460 lung = test system: NCI-H460 lung
# NCI-H522 lung = test system: NCI-H522 lung
# NCI/ADR-RES ovarian = test system: NCI/ADR-RES ovarian
# OVCAR-3 ovarian = test system: OVCAR-3 ovarian
# OVCAR-4 ovarian = test system: OVCAR-4 ovarian
# OVCAR-5 ovarian = test system: OVCAR-5 ovarian
# OVCAR-8 ovarian = test system: OVCAR-8 ovarian
# PC-3 prostate = test system: PC-3 prostate
# RPMI-8226 leukemia = test system: RPMI-8226 leukemia
# RXF 393 renal = test system: RXF 393 renal
# SF-268 CNS = test system: SF-268 CNS
# SF-295 CNS = test system: SF-295 CNS
# SF-539 CNS = test system: SF-539 CNS
# SK-MEL-2 melanoma = test system: SK-MEL-2 melanoma
# SK-MEL-28 melanoma = test system: SK-MEL-28 melanoma
# SK-MEL-5 melanoma = test system: SK-MEL-5 melanoma
# SK-OV-3 ovarian = test system: SK-OV-3 ovarian
# SN12C renal = test system: SN12C renal
# SNB-19 CNS = test system: SNB-19 CNS
# SNB-75 CNS = test system: SNB-75 CNS
# SR leukemia = test system: SR leukemia
# SW-620 colon = test system: SW-620 colon
# T-47D breast = test system: T-47D breast
# TK-10 renal = test system: TK-10 renal
# U251 CNS = test system: U251 CNS
# UACC-257 melanoma = test system: UACC-257 melanoma
# UO-31 renal = test system: UO-31 renal
# UACC-62 melanoma = test system: UACC-62 melanoma
smiles,measurement,setting,value
COC1CC(O[C@H]2CC[C@@]3(C)[C@@H](CC[C@]4(O)[C@@H]3CC[C@]3(C)[C@@H](C(C)=O)[C@H](OC(=O)CC(C)C)[C@@H](OC(=O)c5ccccc5)[C@@]34O)C2)OC(C)C1OC1CC(OC)C(OC2OC(C)C(O)C(OC)C2O)C(C)O1 (stereo partly drawn),TGI,786-0 renal,> 25 µM
same,TGI,A498 renal,> 25 µM
same,TGI,A549 NSCLC,> 25 µM
same,TGI,ACHN renal,> 25 µM
same,TGI,BT-549 breast,> 25 µM
same,TGI,CAKI-1 renal,> 25 µM
same,TGI,CCRF-CEM leukemia,> 25 µM
same,TGI,COLO 205 colon,12.4 µM
same,TGI,DU-145 prostate,> 25 µM
same,TGI,EKVX NSCLC,> 25 µM
same,TGI,HCC-2998 colon,> 25 µM
same,TGI,HCT-116 colon,> 25 µM
same,TGI,HCT-15 colon,> 25 µM
same,TGI,HL-60(TB) leukemia,> 25 µM
same,TGI,HOP-62 NSCLC,> 25 µM
same,TGI,HOP-92 NSCLC,24.8 µM
same,TGI,HS 578T breast,> 25 µM
same,TGI,HT29 colon,> 25 µM
same,TGI,IGROV1 ovarian,> 25 µM
same,TGI,K-562 leukemia,> 25 µM
same,TGI,KM12 colon,> 25 µM
same,TGI,LOX IMVI melanoma,> 25 µM
same,TGI,M14 melanoma,> 25 µM
same,TGI,MALME-3M melanoma,> 25 µM
same,TGI,MCF7 breast,> 25 µM
same,TGI,MDA-MB-231 breast,> 25 µM
same,TGI,MDA-MB-435,> 25 µM
same,TGI,MDA-N,> 25 µM
same,TGI,MOLT-4 leukemia,22.4 µM
same,TGI,NCI-H226 lung,> 25 µM
same,TGI,NCI-H23 lung,> 25 µM
same,TGI,NCI-H460 lung,> 25 µM
same,TGI,NCI-H522 lung,> 25 µM
same,TGI,NCI/ADR-RES ovarian,> 25 µM
same,TGI,OVCAR-3 ovarian,> 25 µM
same,TGI,OVCAR-4 ovarian,> 25 µM
same,TGI,OVCAR-5 ovarian,> 25 µM
same,TGI,OVCAR-8 ovarian,> 25 µM
same,TGI,PC-3 prostate,> 25 µM
same,TGI,RPMI-8226 leukemia,14.5 µM
same,TGI,RXF 393 renal,> 25 µM
same,TGI,SF-268 CNS,> 25 µM
same,TGI,SF-295 CNS,> 25 µM
same,TGI,SF-539 CNS,> 25 µM
same,TGI,SK-MEL-2 melanoma,> 25 µM
same,TGI,SK-MEL-28 melanoma,> 25 µM
same,TGI,SK-MEL-5 melanoma,> 25 µM
same,TGI,SK-OV-3 ovarian,> 25 µM
same,TGI,SN12C renal,> 25 µM
same,TGI,SNB-19 CNS,> 25 µM
same,TGI,SNB-75 CNS,> 25 µM
same,TGI,SR leukemia,> 25 µM
same,TGI,SW-620 colon,> 25 µM
same,TGI,T-47D breast,> 25 µM
same,TGI,TK-10 renal,> 25 µM
same,TGI,U251 CNS,> 25 µM
same,TGI,UACC-257 melanoma,> 25 µM
same,TGI,UO-31 renal,> 25 µM
Cc1nnc(Sc2nc(C#N)c(C#N)nc2Sc2nnc(C)s2)s1,TGI,786-0 renal,28.6 µM
same,TGI,A498 renal,53.3 µM
same,TGI,A549 NSCLC,56.2 µM
same,TGI,ACHN renal,8.08 µM
same,TGI,BT-549 breast,27.7 µM
same,TGI,CCRF-CEM leukemia,5.15 µM
same,TGI,COLO 205 colon,> 53.3 µM
same,TGI,DU-145 prostate,36.6 µM
same,TGI,EKVX NSCLC,> 73.6 µM
same,TGI,HCC-2998 colon,51.8 µM
same,TGI,HCT-116 colon,> 64.3 µM
same,TGI,HCT-15 colon,7.42 µM
same,TGI,HL-60(TB) leukemia,8.83 µM
same,TGI,HOP-62 NSCLC,> 74.3 µM
same,TGI,HOP-92 NSCLC,7.65 µM
same,TGI,HS 578T breast,99.4 µM
same,TGI,HT29 colon,> 23.8 µM
same,TGI,IGROV1 ovarian,21.3 µM
same,TGI,K-562 leukemia,12.6 µM
same,TGI,KM12 colon,> 72 µM
same,TGI,LOX IMVI melanoma,9.18 µM
same,TGI,M14 melanoma,62.9 µM
same,TGI,MALME-3M melanoma,4.48 µM
same,TGI,MCF7 breast,25.3 µM
same,TGI,MDA-MB-231 breast,37.9 µM
same,TGI,MDA-MB-435,> 84.7 µM
same,TGI,MDA-N,49.7 µM
same,TGI,MOLT-4 leukemia,5.47 µM
same,TGI,NCI-H226 lung,64.1 µM
same,TGI,NCI-H23 lung,49.8 µM
same,TGI,NCI-H460 lung,> 76.1 µM
same,TGI,NCI/ADR-RES ovarian,51 µM
same,TGI,OVCAR-3 ovarian,25.3 µM
same,TGI,OVCAR-4 ovarian,> 80.1 µM
same,TGI,OVCAR-5 ovarian,46.5 µM
same,TGI,OVCAR-8 ovarian,8.34 µM
same,TGI,PC-3 prostate,30.7 µM
same,TGI,RXF 393 renal,6 µM
same,TGI,SF-268 CNS,73.2 µM
same,TGI,SF-295 CNS,73.8 µM
same,TGI,SF-539 CNS,> 60.1 µM
same,TGI,SK-MEL-2 melanoma,44.7 µM
same,TGI,SK-MEL-28 melanoma,47 µM
same,TGI,SK-MEL-5 melanoma,46.2 µM
same,TGI,SK-OV-3 ovarian,34.2 µM
same,TGI,SN12C renal,26.4 µM
same,TGI,SNB-19 CNS,54.6 µM
same,TGI,SNB-75 CNS,> 82.3 µM
same,TGI,SR leukemia,> 26.4 µM
same,TGI,T-47D breast,12.9 µM
same,TGI,TK-10 renal,41.4 µM
same,TGI,U251 CNS,47.5 µM
same,TGI,UACC-257 melanoma,62 µM
same,TGI,UACC-62 melanoma,34.9 µM
same,TGI,UO-31 renal,23.9 µM

# Source: PubChem BioAssay (NCI)
